Legend:
HCT116 xenografts = assay: Anti-tumor activity in xenografted mouse model, parental HCT116; format: in vivo, SCID mice; conditions: parental HCT116 xenograft, DAC 2.5 mg/kg i.p., 10 doses, day 0-21
Description: For in vivo validation of HCT116 resistance towards DAC and sensitivity of DAC resistant tumors to (+)-JQ1 treatment, we studied the anti-tumor activity of DAC and (+)-JQ1 in HCT116 parental versus a resistant cell clone R1.4 (HCT116_RDAC). Xenografts were established in 11-12 weeks-old female SCID mice, inoculated with 5×10^6 cells, s.c. on both sides of the chest. After 2 weeks, tumors were palpable (average tumor volume 20 mm^3) and mice were assigned into four groups (8 mice/group). Group I: vehicle control for DAC (10:90, DMSO: PBS) and Group II: DAC, 2.5 mg/kg by i.p. injection once a day for 14 days (5 days on, 2 days off), total 10 doses. […] Body weights of the animals were measured daily and tumor volume data were collected twice a week. […]
For determining the anti-tumor activity of the drugs, DAC and (+)-JQ1, tumor volume data for each group were transformed into relative tumor volumes followed by calculation of treatment to control ratio (T/C ratio) for each time point. […] Statistical significance of the data was determined by calculating bootstrap p-value, n=10000, one-sided test of H0: T/C ratio=1, H1: T/C ratio <1 (Jianrong Wu., Journal of Biopharmaceutical Statistics 2010; 20, 954-64). After day 21, statistical significance cannot be measured accurately due to decreased survival of animals in control group. […]

MCF-7_RDAC = assay: MTT based cell survival assay, DAC resistant MCF-7; parameters: species or system human
Experimental: (§1) For cross validation of data obtained from comparative studies of HCT116 parental and resistant cells, we further developed DAC resistant MCF-7 and HL-60 cell lines. […] However, DAC resistant HL-60 cells were obtained as a gift from the author (Qin T. et al., Blood 2009; 113, 659-67) and was further selected in our laboratory by treatment with 5 μM DAC.
(§2) MTT based cell survival assay was performed in either case, whether to determine the cross-resistance of the DAC resistant cell lines towards inhibitors of DNA methyltransferases, histone acetyltransferases, histone methyltransferases, histone deacetylases, and histone demethylases, or to determine their sensitivity towards selective BET bromodomain inhibitors. […]
(§3) To determine the IC50 of the epigenetic drugs (Tocris Bioscience, Bristol, United Kingdom), four independent experiments were performed using triplicate wells of 96 well plates. […] The wells with medium alone were included alongside as blank for absorbance readings. […]
(§4) Cross resistance was determined as the fold increase, whereas, the sensitivity was determined as the fold decrease in the IC50 of the drugs for the resistant cell lines compared to their genetically identical drug sensitive counterpart.

HL-60_RDAC = assay: MTT based cell survival assay, DAC resistant HL-60; parameters: species or system human
Experimental: as §1, §2, §3, §4

R1.3 (HCT116-RDAC) = assay: MTT based cell survival assay, DAC resistant HCT116 clone R1.3; parameters: species or system human
Experimental: The DAC resistant HCT116 cell lines were developed using two methods.
The method is primarily based on reduction of yellow colored tetrazolium salt, 3-(4,5-dimethylthiazol-2-yl)-2,5-diphenyltetrazolium bromide (MTT) to insoluble purple colored formazan crystals by NAD(P)H-dependent oxidoreductase enzymes in mitochondria of the viable cell.
Cells in 80 μL of medium were plated in each of the experimental and the control wells, followed by addition of 20 μL medium with five-fold drug concentration to experimental wells. The wells with medium alone were included alongside as blank for absorbance readings. After 72 h of drug treatment, 10 μL MTT (Sigma-Aldrich) prepared in 1×PBS (5 mg/mL) was added to all wells including blank and control, and incubated until the purple formazan crystals were visible after which 100 μL of detergent (10% SDS, pH: 5.5) was added and the plates were incubated overnight to solubilize the formazan and the cellular material.
as §4

## Nc1ncn([C@H]2C[C@H](O)[C@@H](CO)O2)c(=O)n1 [DAC, 2′-deoxy-5-azacytidine]
HCT116 xenografts
  fold effect (anti-tumor activity, aAUC of T/C ratio): 2.9
MCF-7_RDAC; Homo sapiens, MCF7, read-out: Mean IC50
  IC50: > 100 µM
MCF-7_RDAC; IC50 MCF-7_RDAC / IC50 MCF-7
  fold change (resistance): > 421 fold
HL-60_RDAC; Homo sapiens, HL-60, read-out: Mean IC50
  IC50: > 100 µM
HL-60_RDAC; IC50 HL-60_RDAC / IC50 HL-60
  fold change (resistance): > 1289 fold
R1.3 (HCT116-RDAC); Homo sapiens, HCT-116, 72 h, read-out: Mean IC50
  IC50: > 100 µM
R1.3 (HCT116-RDAC); IC50 R1.3 / IC50 HCT116
  fold change (resistance index): (>357) fold

Reference: patent US20180251847A1, “METHOD OF PREDICTING THE TUMOR RESPONSE TO DNA METHYLATION INHIBITORS AND ALTERNATIVE THERAPEUTIC REGIMEN FOR OVERCOMING RESISTANCE” (PALACKY UNIVERSITY, OLOMOUC, priority 2014, published 2018)
